Source: article PMC9268515, “UGT1A1 and UGT1A9 Are Responsible for Phase II Metabolism of Tectorigenin and Irigenin In Vitro” (Molecules, 2022)
Read-outs that look alike come from different tables or passages of the source. Each block holds one molecule with its values, some of them ahead of it.

Key:
UGTs in HLMs = test: Inhibition of glucuronidation reaction by chemical inhibitors in HLMs; assay type: in vitro ADME, human; conditions: vs. control without inhibitor
Method: To obtain suitable incubation conditions, we first evaluated the linearity of metabolite formation at different times (10-60 min), the UDPGA concentrations (0.5-5 mM), and the microsome protein concentrations in HLMs (0.2-2 mg/mL). The final incubation medium used in the experiment contained MgCl2 (10 mM), microsomes (0.5 mg/mL), 1,4-lactone monohydrate (5 mM), alamethicin ([…]), UDPGA (1 mM), and different concentrations of tectorigenin or […] (1-300 μM) in Tris-HCl buffer (50 mM, pH 7.4). The mixture was incubated at 37 °C for 30 min; then, the reaction was stopped by adding ice-cold methanol. After the mixtures were centrifuged (17,000 rpm, 10 min), and the supernatant was analyzed by HPLC. Michaelis-Menten parameters (Vmax and Km) were determined on the basis of the nonlinear regression of the plot of the substrate concentration vs. rate of metabolite formation. Several well-characterized UGT substrates were used as “inhibitors” to examine the involvement of UGTs in the glucuronidation of tectorigenin or […]. To reduce nonspecific inhibition, the concentration of each inhibitor was determined according to the available literature, namely, 100 μM silibinin for UGT1A1 [31], 50 μM trifluoperazine for UGT1A4 [32], 100 μM 1-naphthol for UGT1A6/1A9 [18, 33], and 500 μM fluconazole for UGT2B7 [34]. A reaction without inhibitors was carried out in parallel as a control.

[1] = Stability experiment under different storage conditions; assay type: physicochemical; conditions: for Stability in Autosampler for 12 h, RE (%): 4 °C; for Stability in Autosampler for 12 h, RE (%) / Stability in Inactivated Metabolic System for 2 h, RE (%) / Stability −80 °C for 7 Days, RE (%): n = 5; for Stability in Inactivated Metabolic System for 2 h, RE (%): approximately 25 °C
Method: In the stability experiment, we evaluated the stability of tectorigenin and irigenin, as well as their metabolites, under different conditions. […] Metabolites (M, M1, and M2) were stable in the inactivated metabolic system for 2 h (held constant at approximately 25 °C) and after storage for 7 days (−80 °C), as well as in the pretreated samples placed in the autosampler for 12 h at 4 °C.

UGT1A9 = molecular target: T1, UGT1A9 (Homo sapiens, UniProt O60656); test: Recombinant UGT reaction screening and enzyme kinetics, UGT1A9; assay type: in vitro ADME; conditions: recombinant UGT1A9 screening
T1 construct: purchased BD Biosciences (Woburn, MA, USA)
T1 sequence (O60656 26-530): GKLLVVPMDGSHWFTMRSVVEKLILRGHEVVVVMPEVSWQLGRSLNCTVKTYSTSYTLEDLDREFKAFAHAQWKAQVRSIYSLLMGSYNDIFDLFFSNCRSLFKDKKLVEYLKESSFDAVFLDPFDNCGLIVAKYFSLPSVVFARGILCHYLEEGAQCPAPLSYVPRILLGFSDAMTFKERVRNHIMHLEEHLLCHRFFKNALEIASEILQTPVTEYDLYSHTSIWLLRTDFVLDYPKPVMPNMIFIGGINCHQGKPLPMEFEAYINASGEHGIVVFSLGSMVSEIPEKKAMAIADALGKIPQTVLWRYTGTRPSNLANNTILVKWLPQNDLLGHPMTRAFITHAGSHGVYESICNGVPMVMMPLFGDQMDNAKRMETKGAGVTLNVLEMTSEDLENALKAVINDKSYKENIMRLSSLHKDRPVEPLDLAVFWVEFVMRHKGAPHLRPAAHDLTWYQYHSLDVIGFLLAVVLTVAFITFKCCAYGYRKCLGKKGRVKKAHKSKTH
Method: (§1) UGT reaction screening of tectorigenin and irigenin was conducted using nine commercially available human UGTs (UGT1A1/1A3/1A4/1A6/1A9/2B4/2B7/2B15/2B17). Furthermore, we studied the enzymatic kinetic characteristics of tectorigenin and irigenin using UGT1A1 and UGT1A9. Six concentrations of tectorigenin and irigenin (1, 3, 10, 30, 100, and 300 μM) were incubated in triplicate in order to obtain the enzyme kinetic characteristics of tectorigenin and irigenin glucuronide.
(§2) For both HLMs and UGTs, metabolic kinetic analysis was performed by fitting the data to the Michaelis-Menten model. The Km and Vmax of enzymes were calculated as follows:(3) V=Vmax×[S]/Km+[S], where [S] is the substrate concentration. All results were shown as the mean ± standard error (SE). Differences among different groups were compared using one-way analysis of variance. A p-value < 0.05 was considered statistically significant.

[2] = system: pooled human liver microsomes (HLMs); test: Glucuronidation kinetics of tectorigenin and irigenin in HLMs; assay type: in vitro ADME; conditions: irigenin glucuronidation in HLMs
Method: To obtain suitable incubation conditions, we first evaluated the linearity of metabolite formation at different times (10–60 min), the UDPGA concentrations (0.5–5 mM), and the microsome protein concentrations in HLMs (0.2–2 mg/mL). The final incubation medium used in the experiment contained MgCl2 (10 mM), microsomes (0.5 mg/mL), 1,4-lactone monohydrate (5 mM), alamethicin ([…]), UDPGA (1 mM), and different concentrations of tectorigenin or irigenin (1–300 μM) in Tris-HCl buffer (50 mM, pH 7.4). The mixture was incubated at 37 °C for 30 min; then, the reaction was stopped by adding ice-cold methanol. After the mixtures were centrifuged (17,000 rpm, 10 min), and the supernatant was analyzed by HPLC. Michaelis–Menten parameters (Vmax and Km) were determined on the basis of the nonlinear regression of the plot of the substrate concentration vs. rate of metabolite formation.
as §2

UGT1A1 = molecular target: T2, UGT1A1 (Homo sapiens, UniProt P22309); test: Recombinant UGT reaction screening and enzyme kinetics, UGT1A1; assay type: in vitro ADME; conditions: recombinant UGT1A1 screening
T2 construct: purchased BD Biosciences (Woburn, MA, USA)
T2 sequence (P22309 26-533): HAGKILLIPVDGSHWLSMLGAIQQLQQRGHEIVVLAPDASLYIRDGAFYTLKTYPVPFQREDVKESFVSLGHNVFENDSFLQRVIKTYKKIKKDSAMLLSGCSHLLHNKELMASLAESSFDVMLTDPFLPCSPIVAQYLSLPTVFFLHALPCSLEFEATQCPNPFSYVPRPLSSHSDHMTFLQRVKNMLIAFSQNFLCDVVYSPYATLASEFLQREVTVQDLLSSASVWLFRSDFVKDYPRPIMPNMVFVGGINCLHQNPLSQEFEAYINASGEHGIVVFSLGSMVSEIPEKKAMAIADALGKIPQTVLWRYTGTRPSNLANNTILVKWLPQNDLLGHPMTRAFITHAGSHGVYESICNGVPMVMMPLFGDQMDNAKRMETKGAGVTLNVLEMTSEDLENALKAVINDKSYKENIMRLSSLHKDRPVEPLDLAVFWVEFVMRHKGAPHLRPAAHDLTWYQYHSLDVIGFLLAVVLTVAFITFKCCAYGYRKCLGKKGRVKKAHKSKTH
Method: as §1, §2

[3] = substrate: COc1cc(-c2coc3cc(O)c(OC)c(O)c3c2=O)cc(O)c1OC; test: as above; assay type: in vitro ADME, human; conditions: other: irigenin glucuronidation, UGT1A1(M1)
Method: as §1, §2

[4] = substrate: COc1c(O)cc2occ(-c3ccc(O)cc3)c(=O)c2c1O; test: as above; assay type: in vitro ADME, human; conditions: other: tectorigenin glucuronidation (M) by UGT1A1
Method: as §1, §2

[5] = substrate: COc1cc(-c2coc3cc(O)c(OC)c(O)c3c2=O)cc(O)c1OC; test: Recombinant UGT reaction screening and enzyme kinetics, UGT1A9; assay type: in vitro ADME, human; conditions: other: irigenin glucuronidation
Method: as §1, §2

[6] = substrate: COc1c(O)cc2occ(-c3ccc(O)cc3)c(=O)c2c1O; test: as above; assay type: in vitro ADME, human; conditions: other: tectorigenin glucuronidation (M) by UGT1A9
Method: as §1, §2

[7] = 100 μM silibinin, 100 μM 1-naphthol

Molecule: COc1cc(C2Oc3cc([C@H]4Oc5cc(O)cc(O)c5C(=O)[C@@H]4O)ccc3OC2CO)ccc1O (some centres unmarked) [Silibinin]
- Effect of UGT inhibitor on tectorigenin glucuronidation (UGTs in HLMs; [7]): significantly inhibited
- Effect of UGT inhibitor on production of M1 from irigenin (UGTs in HLMs; 100 μM silibinin): significantly inhibited

- Stability in pretreated samples in the autosampler ([1]; autosampler 12 h at 4 °C): stable
- RE and RSD values in pretreated samples in the autosampler ([1]; autosampler 12 h at 4 °C, printed as below ±5%): < 5%
- Activity in glucuronidation of irigenin, M2 formation (UGT1A9): highest effect
- Km ([2]; metabolite M1, read-out: Km for M1 formation): 16.9 ± 2.96 µM
- Km ([2]; metabolite M2, read-out: Km for M2 formation): 27.4 ± 2.46 µM
- Activity in glucuronidation of irigenin, M1 formation (UGT1A1): highest activity
Molecule: COc1cc(-c2coc3cc(O)c(OC)c(O)c3c2=O)cc(O)c1OC [Irigenin, 3’,5,7-trihydroxy-4’,5’,6-trimethoxy isoflavone]
- Vmax for M1 formation ([2]; metabolite M1): 6.09 ± 0.27 nmol/min/mg
- Vmax for M2 formation ([2]; metabolite M2): 1.16 ± 0.03 nmol/min/mg

Molecule: Oc1cccc2ccccc12 [1-naphthol]
- Effect of UGT inhibitor on production of M2 from irigenin (UGTs in HLMs; 100 μM 1-naphthol): inhibited
- Effect of UGT inhibitor on tectorigenin glucuronidation (UGTs in HLMs; [7]): significantly inhibited

- Stability in Autosampler for 12 h, RE (%) ([1]; High concentration): −5.18%
- Stability in Inactivated Metabolic System for 2 h, RE (%) ([1]; High concentration): 0.59%
- Stability −80 °C for 7 Days, RE (%) ([1]; High concentration): 4.71%
- Stability in Autosampler for 12 h, RE (%) ([1]; Low concentration): −2.13%
- Stability in Inactivated Metabolic System for 2 h, RE (%) ([1]; Low concentration): 0.38%
- Stability −80 °C for 7 Days, RE (%) ([1]; Low concentration): 2.90%
- Stability of metabolites ([1]; inactivated metabolic system 2 h (approx. 25 °C), 7 days at −80 °C, autosampler 12 h at 4 °C): stable
Molecule: COc1c(O[C@@H]2O[C@H](C(=O)O)[C@@H](O)[C@H](O)[C@H]2O)cc2occ(-c3ccc(O)cc3)c(=O)c2c1O [M, tectorigenin-7-O-glucuronide]

B1: UGT1A1 (Homo sapiens) (protein)
chain: T2 sequence (P22309 26-533)
notes: purchased BD Biosciences (Woburn, MA, USA)
- Km [3]: 20.86 ± 2.04 µM
- Vmax [3]: 0.00522 µmol/min/mg
- Km [4]: 4.064e-05 ± 5.56e-06 M
- Vmax [4]: 0.00901 µmol/min/mg

B2: UGT1A9 (Homo sapiens) (protein)
chain: T1 sequence (O60656 26-530)
notes: as for B1
- Km ([5]; UGT1A9(M1)): 73.88 ± 4.04 µM
- Vmax ([5]; UGT1A9(M1)): 0.00045 µmol/min/mg
- Km ([5]; UGT1A9(M2)): 25.04 ± 2.37 µM
- Vmax ([5]; UGT1A9(M2)): 0.00456 µmol/min/mg
- Km [6]: 1.837e-05 ± 1.16e-06 M
- Vmax [6]: 0.00349 µmol/min/mg
